Measured values taken from ChEMBL document CHEMBL3526086, “Identification of the oxidative and conjugative enzymes involved in the biotransformation of brivanib” (Drug Metab Dispos, 2012).

Assays:
Assay type in all cases: ADME
[1] = molecular target: Cytochrome P450 2E1 (Homo sapiens, UniProt P05181); assay: Drug metabolism in human liver microsomes assessed as monoclonal antibody-mediated inhibition of CYP2E1-mediated (R)-1-(4-(4-fluoro-2-(hydroxymethyl)-1H-indol-5-yloxy)-5-methylpyrrolo[1,2-f][1,2,4]triazin-6-yloxy)propan-2-ol formation at 2 and 20 uM for 30 mins by LC/MS analysis; conditions: 0.5 h
Chain of Cytochrome P450 2E1 (P05181 whole entry): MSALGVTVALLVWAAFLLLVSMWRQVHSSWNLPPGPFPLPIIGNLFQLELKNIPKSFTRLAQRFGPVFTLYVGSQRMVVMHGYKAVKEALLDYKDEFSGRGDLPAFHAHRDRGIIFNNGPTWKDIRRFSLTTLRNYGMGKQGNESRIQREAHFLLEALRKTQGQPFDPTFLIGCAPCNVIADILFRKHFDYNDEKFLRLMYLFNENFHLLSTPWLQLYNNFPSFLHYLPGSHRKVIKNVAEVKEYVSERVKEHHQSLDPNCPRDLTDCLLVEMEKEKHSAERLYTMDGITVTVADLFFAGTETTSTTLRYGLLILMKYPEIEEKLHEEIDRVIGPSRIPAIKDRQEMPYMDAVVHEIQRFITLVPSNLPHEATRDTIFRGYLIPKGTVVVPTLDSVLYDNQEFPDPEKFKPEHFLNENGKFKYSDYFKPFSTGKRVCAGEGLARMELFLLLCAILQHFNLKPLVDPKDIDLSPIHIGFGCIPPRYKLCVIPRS

[2] = molecular target: T1, Cytochrome P450 2C8 (Homo sapiens, UniProt P10632); assay: Drug metabolism in human liver microsomes assessed as 3 uM montekulast-mediated inhibition of CYP2C8-mediated (R)-1-(4-(4-fluoro-2-(hydroxymethyl)-1H-indol-5-yloxy)-5-methylpyrrolo[1,2-f][1,2,4]triazin-6-yloxy)propan-2-ol formation at 2 and 20 uM for 30 mins by LC/MS analysis; conditions: 0.5 h
T1 sequence (P10632 whole entry): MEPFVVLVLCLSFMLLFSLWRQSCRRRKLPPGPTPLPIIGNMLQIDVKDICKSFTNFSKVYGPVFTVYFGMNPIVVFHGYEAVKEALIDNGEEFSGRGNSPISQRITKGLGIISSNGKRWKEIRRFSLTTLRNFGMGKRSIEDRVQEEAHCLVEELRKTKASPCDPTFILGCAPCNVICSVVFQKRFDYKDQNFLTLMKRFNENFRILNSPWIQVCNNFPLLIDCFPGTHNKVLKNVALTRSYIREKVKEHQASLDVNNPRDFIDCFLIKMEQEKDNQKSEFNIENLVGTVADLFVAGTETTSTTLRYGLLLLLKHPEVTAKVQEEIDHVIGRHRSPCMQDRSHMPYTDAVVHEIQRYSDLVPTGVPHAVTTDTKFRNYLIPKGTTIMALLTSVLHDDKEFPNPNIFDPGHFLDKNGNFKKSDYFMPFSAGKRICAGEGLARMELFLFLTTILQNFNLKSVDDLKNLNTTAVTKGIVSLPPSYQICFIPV

[3] = molecular target: Cytochrome P450 2D6 (Homo sapiens, UniProt P10635); assay: Drug metabolism in human liver microsomes assessed as 1 uM quinidine-mediated inhibition of CYP2D6-mediated(R)-1-(4-(4-fluoro-2-(hydroxymethyl)-1H-indol-5-yloxy)-5-methylpyrrolo[1,2-f][1,2,4]triazin-6-yloxy)propan-2-ol formation at 2 and 20 uM for 30 mins by LC/MS analysis; conditions: 0.5 h
Chain of Cytochrome P450 2D6 (P10635 whole entry): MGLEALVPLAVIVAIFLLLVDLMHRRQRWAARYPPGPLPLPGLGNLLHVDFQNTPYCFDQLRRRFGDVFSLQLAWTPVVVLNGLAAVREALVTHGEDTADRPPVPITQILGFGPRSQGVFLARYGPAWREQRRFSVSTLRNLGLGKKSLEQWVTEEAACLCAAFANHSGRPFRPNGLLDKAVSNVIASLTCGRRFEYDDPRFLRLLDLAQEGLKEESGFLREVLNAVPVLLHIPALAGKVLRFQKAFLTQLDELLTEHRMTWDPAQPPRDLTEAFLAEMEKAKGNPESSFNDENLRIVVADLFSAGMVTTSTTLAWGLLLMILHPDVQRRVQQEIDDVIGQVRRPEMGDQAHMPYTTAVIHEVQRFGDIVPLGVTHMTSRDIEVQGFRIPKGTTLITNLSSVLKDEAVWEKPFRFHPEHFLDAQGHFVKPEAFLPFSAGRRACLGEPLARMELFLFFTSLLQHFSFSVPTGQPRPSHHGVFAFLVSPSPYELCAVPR

[4] = molecular target: Sulfotransferase 1E1 (Homo sapiens, UniProt P49888); assay: Drug metabolism assessed as human SULT1E1-mediated (R)-1-(4-(4-fluoro-2-methyl-1H-indol-5-yloxy)-5-methylpyrrolo[1,2-f][1,2,4]triazin-6-yloxy)propane-2-sulfonic acid formation at 2 and 20 uM for 30 mins by LC/MS analysis in presence of PAPS; conditions: 0.5 h
Chain of Sulfotransferase 1E1 (P49888 whole entry): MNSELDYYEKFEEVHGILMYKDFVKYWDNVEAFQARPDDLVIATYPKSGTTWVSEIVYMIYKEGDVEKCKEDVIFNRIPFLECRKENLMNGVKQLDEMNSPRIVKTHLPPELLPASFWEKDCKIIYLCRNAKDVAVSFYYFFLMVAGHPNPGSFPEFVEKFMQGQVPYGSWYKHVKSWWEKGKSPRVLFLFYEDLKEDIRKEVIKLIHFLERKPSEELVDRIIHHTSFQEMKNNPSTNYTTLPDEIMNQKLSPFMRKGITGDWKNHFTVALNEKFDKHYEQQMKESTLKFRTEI

[5] = molecular target: Cytochrome P450 2C19 (Homo sapiens, UniProt P33261); assay: Drug metabolism in human liver microsomes assessed as monoclonal antibody-mediated inhibition of CYP2C19-mediated (R)-1-(4-(4-fluoro-2-(hydroxymethyl)-1H-indol-5-yloxy)-5-methylpyrrolo[1,2-f][1,2,4]triazin-6-yloxy)propan-2-ol formation at 2 and 20 uM for 30 mins by LC/MS analysis; conditions: 0.5 h
Chain of Cytochrome P450 2C19 (P33261 whole entry): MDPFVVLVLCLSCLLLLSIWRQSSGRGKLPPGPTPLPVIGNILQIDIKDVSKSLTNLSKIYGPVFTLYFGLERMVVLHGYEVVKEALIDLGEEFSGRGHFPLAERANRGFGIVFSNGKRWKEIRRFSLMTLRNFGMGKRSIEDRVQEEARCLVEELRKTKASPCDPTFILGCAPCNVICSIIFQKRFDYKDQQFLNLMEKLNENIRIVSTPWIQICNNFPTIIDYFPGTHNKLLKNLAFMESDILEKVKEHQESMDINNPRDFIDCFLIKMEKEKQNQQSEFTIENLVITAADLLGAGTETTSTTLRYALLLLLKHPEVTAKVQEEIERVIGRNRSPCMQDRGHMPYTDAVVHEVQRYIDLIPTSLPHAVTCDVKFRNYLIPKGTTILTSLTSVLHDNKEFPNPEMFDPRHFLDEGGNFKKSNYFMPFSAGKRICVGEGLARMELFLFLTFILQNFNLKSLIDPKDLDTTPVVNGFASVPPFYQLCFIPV

[6] = molecular target: Cytochrome P450 3A4 (Homo sapiens, UniProt P08684); assay: Activity of human CYP3A4 assessed as intrinsic clearance for enzyme-mediated (R)-1-(4-(4-fluoro-2-(hydroxymethyl)-1H-indol-5-yloxy)-5-methylpyrrolo[1,2-f][1,2,4]triazin-6-yloxy)propan-2-ol formation per picomole enzyme in presence of NADPH
Chain of Cytochrome P450 3A4 (P08684 whole entry): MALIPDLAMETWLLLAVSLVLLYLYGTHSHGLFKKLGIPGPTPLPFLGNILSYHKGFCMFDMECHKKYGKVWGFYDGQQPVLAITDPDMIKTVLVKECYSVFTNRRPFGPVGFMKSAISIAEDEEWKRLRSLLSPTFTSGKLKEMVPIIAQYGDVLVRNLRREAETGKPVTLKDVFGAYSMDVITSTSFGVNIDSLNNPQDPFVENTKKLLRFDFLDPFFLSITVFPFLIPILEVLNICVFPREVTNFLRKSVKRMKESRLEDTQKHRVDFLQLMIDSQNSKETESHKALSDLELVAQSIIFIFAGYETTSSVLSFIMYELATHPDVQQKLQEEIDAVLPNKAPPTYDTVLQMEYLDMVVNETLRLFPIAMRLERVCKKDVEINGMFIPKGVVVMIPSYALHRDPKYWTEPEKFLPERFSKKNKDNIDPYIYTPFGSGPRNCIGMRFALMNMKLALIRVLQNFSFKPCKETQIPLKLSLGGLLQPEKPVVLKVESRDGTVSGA

[7] = molecular target: Cytochrome P450 2C9 (Homo sapiens, UniProt P11712); assay: Drug metabolism in human liver microsomes assessed as 10 uM sulfaphenazole-mediated inhibition of CYP2C9-mediated (R)-1-(4-(4-fluoro-2-(hydroxymethyl)-1H-indol-5-yloxy)-5-methylpyrrolo[1,2-f][1,2,4]triazin-6-yloxy)propan-2-ol formation at 2 and 20 uM for 30 mins by LC/MS analysis; conditions: 0.5 h
Chain of Cytochrome P450 2C9 (P11712 whole entry): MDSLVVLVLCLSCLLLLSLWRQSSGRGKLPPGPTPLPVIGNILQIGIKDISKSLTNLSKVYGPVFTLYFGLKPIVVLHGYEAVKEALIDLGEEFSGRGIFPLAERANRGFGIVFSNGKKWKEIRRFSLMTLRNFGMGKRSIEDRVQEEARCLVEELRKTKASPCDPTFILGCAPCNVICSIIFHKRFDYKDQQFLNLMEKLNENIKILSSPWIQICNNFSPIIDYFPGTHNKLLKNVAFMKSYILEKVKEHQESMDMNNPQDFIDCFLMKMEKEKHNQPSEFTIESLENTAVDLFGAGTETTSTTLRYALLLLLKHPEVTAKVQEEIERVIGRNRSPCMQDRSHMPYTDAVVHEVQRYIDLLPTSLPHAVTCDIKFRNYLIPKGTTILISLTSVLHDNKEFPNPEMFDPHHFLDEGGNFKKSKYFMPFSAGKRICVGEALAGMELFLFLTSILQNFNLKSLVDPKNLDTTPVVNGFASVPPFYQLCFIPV

[8] = molecular target: T2, Cytochrome P450 1A2 (Homo sapiens, UniProt P05177); assay: Activity of human CYP1A2 assessed as intrinsic clearance for enzyme-mediated (R)-1-(4-(4-fluoro-2-(hydroxymethyl)-1H-indol-5-yloxy)-5-methylpyrrolo[1,2-f][1,2,4]triazin-6-yloxy)propan-2-ol formation per picomole enzyme in presence of NADPH
T2 sequence (P05177 whole entry): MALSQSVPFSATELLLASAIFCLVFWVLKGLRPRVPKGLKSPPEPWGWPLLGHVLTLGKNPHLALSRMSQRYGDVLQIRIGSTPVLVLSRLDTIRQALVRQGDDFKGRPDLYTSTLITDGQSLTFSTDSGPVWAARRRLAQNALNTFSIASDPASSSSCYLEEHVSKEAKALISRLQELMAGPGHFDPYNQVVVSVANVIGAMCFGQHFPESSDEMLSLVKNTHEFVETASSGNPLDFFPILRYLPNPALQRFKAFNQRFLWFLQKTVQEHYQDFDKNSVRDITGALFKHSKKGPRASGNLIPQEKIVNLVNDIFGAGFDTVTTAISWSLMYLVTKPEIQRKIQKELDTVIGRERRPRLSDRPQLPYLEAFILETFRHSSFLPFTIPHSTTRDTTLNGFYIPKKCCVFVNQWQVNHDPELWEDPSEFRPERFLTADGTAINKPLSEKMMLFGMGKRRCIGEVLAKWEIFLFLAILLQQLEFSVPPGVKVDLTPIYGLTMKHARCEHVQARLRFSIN

[9] = molecular target: Cytochrome P450 3A5 (Homo sapiens, UniProt P20815); assay: Drug metabolism assessed as human CYP3A5-mediated (R)-1-(4-(4-fluoro-2-(hydroxymethyl)-1H-indol-5-yloxy)-5-methylpyrrolo[1,2-f][1,2,4]triazin-6-yloxy)propan-2-ol formation at 2 and 20 uM for 20 mins by LC/MS analysis in presence of NADPH; conditions: recombinant enzyme
Chain of Cytochrome P450 3A5 (P20815 whole entry): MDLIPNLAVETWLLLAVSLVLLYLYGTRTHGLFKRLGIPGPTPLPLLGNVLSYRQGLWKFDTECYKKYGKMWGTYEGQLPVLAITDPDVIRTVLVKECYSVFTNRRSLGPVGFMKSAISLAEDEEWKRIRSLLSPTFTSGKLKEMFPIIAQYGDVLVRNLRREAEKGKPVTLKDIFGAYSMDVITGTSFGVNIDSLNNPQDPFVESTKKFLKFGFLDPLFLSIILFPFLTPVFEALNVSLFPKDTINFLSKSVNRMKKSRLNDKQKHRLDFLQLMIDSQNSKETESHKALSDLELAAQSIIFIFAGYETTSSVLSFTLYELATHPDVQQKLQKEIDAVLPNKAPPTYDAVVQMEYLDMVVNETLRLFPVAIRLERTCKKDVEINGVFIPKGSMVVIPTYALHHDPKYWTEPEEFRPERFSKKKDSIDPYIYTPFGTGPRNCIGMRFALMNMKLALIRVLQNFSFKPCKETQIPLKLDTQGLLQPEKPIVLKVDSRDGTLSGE

[10] = molecular target: T1, Cytochrome P450 2C8; assay: Drug metabolism assessed as human CYP2C8-mediated (R)-1-(4-(4-fluoro-2-(hydroxymethyl)-1H-indol-5-yloxy)-5-methylpyrrolo[1,2-f][1,2,4]triazin-6-yloxy)propan-2-ol formation at 2 and 20 uM for 20 mins by LC/MS analysis in presence of NADPH; conditions: recombinant enzyme

Drug metabolism [1]: metabolite_detected | Drug metabolism [2]: metabolite_detected | Drug metabolism [3]: metabolite_detected | Drug metabolism [4]: metabolite_detected | Drug metabolism [5]: metabolite_detected | CL [6]: 0.016 µL/min | Drug metabolism [7]: metabolite_detected | CL [8]: 0.031 µL/min | Drug metabolism [9]: metabolite_detected | Drug metabolism [10]: metabolite_detected
Structure (SMILES): Cc1cc2c(F)c(Oc3ncnn4cc(OC[C@@H](C)O)c(C)c34)ccc2[nH]1 [BRIVANIB]
